# Source: patent US8618163B2, “Derivatives of cycloalkyl- and cycloalkenyl-1,2-dicarboxylic acid compounds having formyl peptide receptor like-1 (FPRL-1) agonist or antagonist activity” (Allergan, Inc., priority 2010, dated 2013)
# Read-outs that look alike come from different tables or passages of the source.
# What was measured:
# FPRL1 = molecular target: T1, FPRL1 (Homo sapiens, UniProt P25090); test: compound-induced calcium activity on FLIPR Tetra in CHO-Gal6 cells stably expressing FPRL1; format: cell-based; details: for FPRL1 (rel. eff.): relative efficacy
# T1 construct: expressed in transfected cells; host or cells: CHO-Gal6 (CHO cells with G alpha 16)
# T1 sequence (P25090 1-351): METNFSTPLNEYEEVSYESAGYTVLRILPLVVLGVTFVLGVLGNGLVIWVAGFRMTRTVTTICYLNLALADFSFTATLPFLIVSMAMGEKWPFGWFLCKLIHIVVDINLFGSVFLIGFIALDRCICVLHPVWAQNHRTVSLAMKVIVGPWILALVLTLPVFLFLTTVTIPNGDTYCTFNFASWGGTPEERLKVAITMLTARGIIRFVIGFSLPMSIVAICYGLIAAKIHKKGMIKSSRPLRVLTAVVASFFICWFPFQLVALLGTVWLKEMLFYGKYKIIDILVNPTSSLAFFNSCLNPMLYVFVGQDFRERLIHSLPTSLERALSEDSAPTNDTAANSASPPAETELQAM
# Procedure, shortened: (§1)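 FPRL1 tested in CHO-Gal6 cells and FPR1 in HEK-Gqi5 cells, both stably expressing receptor and plated the day before. Compound-induced calcium response measured on FLIPR Tetra at 0.61 to 10,000 nM. EC50 (nM) and efficacy reported.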
# FPR1 = molecular target: T2, FPR1 (Homo sapiens, UniProt P21462); test: compound-induced calcium activity on FLIPR Tetra in HEK-Gqi5 cells stable expressing FPR1; format: cell-based; set-up: FPR1 (rel. eff.): scale not given here
# T2 construct: expressed in transfected cells; host or cells: HEK-Gqi5 (HEK cells with chimeric G protein Gqi5)
# T2 sequence (P21462 1-350): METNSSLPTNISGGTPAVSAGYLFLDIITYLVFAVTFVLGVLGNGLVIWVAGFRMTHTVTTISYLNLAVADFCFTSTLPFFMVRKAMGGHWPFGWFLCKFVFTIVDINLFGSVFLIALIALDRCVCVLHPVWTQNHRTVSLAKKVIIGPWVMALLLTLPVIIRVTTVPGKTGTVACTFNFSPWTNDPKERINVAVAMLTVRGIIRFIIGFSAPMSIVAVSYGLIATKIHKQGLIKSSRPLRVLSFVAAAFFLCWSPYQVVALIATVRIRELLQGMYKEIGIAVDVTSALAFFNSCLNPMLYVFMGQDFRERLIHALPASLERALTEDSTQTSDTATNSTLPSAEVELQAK
# Procedure, shortened: as §1
# [1] = calcium, FLIPR Tetra, tested 0.61 to 10,000 nM, read-out: FPRL1 EC50
# [2] = class symbol NA, read-out: FPR1 EC50 (NA = Not Active)
Molecule,EC50 (FPRL1; [1]) [µM],"FPRL1 (rel. eff.) (FPRL1; calcium, FLIPR Tetra)",EC50 (FPR1; [2]) [µM],"EC50 (FPRL1; class symbol NA, read-out: FPRL1 EC50 (NA = Not Active)) [µM]","EC50 (FPR1; calcium, FLIPR Tetra, tested 0.61 to 10,000 nM, read-out: FPR1 EC50) [µM]","FPR1 (rel. eff.) (FPR1; relative efficacy, calcium, FLIPR Tetra)"
"CC(C)OC(=O)[C@@H]1[C@H](C(=O)Nc2ccc(Br)cc2)[C@@H]2CC[C@H]1C21CC1 (racemic) [Compound 86, (+/−)-(1S,2R,3S,4R)-Isopropyl 2-((4-bromophenyl)carbamoyl)spiro[bicyclo[2.2.1]heptane-7,1′-cyclopropane]-3-carboxylate]",2.11,1.0,> 10,–,–,–
"O=C(O)[C@@H]1[C@H](C(=O)NNc2ccc(Br)cc2)[C@@H]2CC[C@H]1C21CC1 (racemic) [Compound 87, (+/−)-(1S,2R,3S,4R)-2-(2-(4-Bromophenyl)hydrazinecarbonyl)spiro[bicyclo[2.2.1]heptane-7,1′-cyclopropane]-3-carboxylic Acid]",0.456,0.89,> 10,–,–,–
"CN(C(=O)[C@H]1[C@@H](C(=O)O)[C@H]2CC[C@@H]1C21CC1)c1ccc(Br)cc1 (racemic) [Compound 88, (+/−)-(1S,2R,3S,4R)-2-((4-Bromophenyl)(methyl)carbamoyl)spiro[bicyclo[2.2.1]heptane-7,1′-cyclopropane]-3-carboxylate]",0.41,0.94,> 10,–,–,–
"N#C[C@@H]1[C@H](C(=O)Nc2ccc(Br)cc2)[C@@H]2CC[C@H]1C21CC1 (racemic) [Compound 89, (+/−)-(1S,2R,3S,4R)—N-(4-Bromophenyl)-3-cyanospiro[bicyclo[2.2.1]heptane-7,1′-cyclopropane]-2-carboxamide]",1.09,0.82,> 10,–,–,–
"O=C1C2C(C(O)N1c1ccc(Br)cc1)C1CCC2C12CC2 (racemic) [Compound 91, (+/−)-(3aR,4S,7R,7aS)-2-(4-Bromophenyl)-1-hydroxyhexahydro-1H-spiro[4,7-methanoisoindole-8,1′-cyclopropane]-3(2H)-one]",–,–,> 10,> 10,–,–
"O=C(Nc1ccc(Br)cc1)[C@H]1[C@@H](C=NO)[C@H]2CC[C@@H]1C21CC1 (racemic) [Compound 92, (+/−)-(1S,2R,3S,4R)—N-(4-Bromophenyl)-3-((hydroxyimino)methyl)spiro[bicyclo[2.2.1]heptane-7,1′-cyclopropane]-2-carboxamide]",4.38,0.5,> 10,–,–,–
"N=C[C@@H]1[C@H](C(=O)Nc2ccccc2)[C@@H]2CC[C@H]1C21CC1 (racemic) [Compound 93, (+/−)-(1S,2R,3S,4R)-3-(Iminomethyl)-N-phenylspiro[bicyclo[2.2.1]heptane-7,1′-cyclopropane]-2-carboxamide]",5.81,0.58,> 10,–,–,–
"O=C(Nc1ccccc1)[C@H]1[C@@H](C=NO)[C@H]2CC[C@@H]1C21CC1 (racemic) [Compound 94, (+/−)-(1S,2R,3S,4R)-3-((Hydroxyimino)methyl)-N-phenylspiro[bicyclo[2.2.1]heptane-7,1′-cyclopropane]-2-carboxamide]",2.83,0.49,> 10,–,–,–
"O=C(O)C1C(C(=O)Nc2ccc(Br)cc2)C2CCC1C21CC1 (single isomer, unassigned) [Compound 10B]",< 0.001,0.98,–,–,2.17,0.76
"CS(=O)(=O)c1ccc(NC(=O)[C@H]2[C@@H](C(=O)O)[C@H]3CC[C@@H]2C32CC2)cc1 [Compound 45, (1R,2S,3R,4S)-3-((4-(Methylsulfonyl)phenyl)carbamoyl)spiro[bicyclo[2.2.1]heptane-7,1′-cyclopropane]-2-carboxylic Acid]",0.598,0.86,> 10,–,–,–
"O=C(O)C1=C(C(=O)Nc2ccc(Br)cc2)C2CCC1CC2 [Compound 60, (1s,4s)-3-((4-Bromophenyl)carbamoyl)bicyclo[2.2.2]oct-2-ene-2-carboxylic Acid]",0.143,1.0,> 10,–,–,–
"(+/−)-(1S,2R,3S,4R)—N^2-(4-Bromophenyl)-N^3-methoxyspiro[bicyclo[2.2.1]heptane-7,1′-cyclopropane]-2,3-dicarboxamide [Compound 80]",0.0559,0.97,> 10,–,–,–
